Legend:
Type in all cases: cell-based, human
CAL27 = assay: XTT cell viability assay, CAL27 HNSCC cells; conditions: Homo sapiens, CAL-27; XTT assay, 48 h; SD 10%; mean of three experiments; read-out: IC50 27 (HNSCC)
Method: (§1) Fifty microliters of sodium 3′-[1-phenylaminocarbonyl)-3,4-tetrazolium]-bis(4-methoxy-6-nitro) benzene sulfonic acid hydrate (XTT) reagent was added to each well. The assay is based on the cleavage of the yellow tetrazolium salt XTT to form an orange formazan dye by metabolically active cells. This bio-reduction occurs in viable cells only and is related to NAD(P)H production through glycolysis. Therefore, the amount of formazan dye measured at 490 nm directly correlated with the number of metabolically active cells reflecting cell proliferation and viability. Each assay was performed in quadruplicate.

CAL33 = assay: XTT cell viability assay, CAL33 HNSCC cells; conditions: Homo sapiens, CAL-33; XTT assay, 48 h; SD 10%; mean of three experiments; read-out: IC50 33 (HNSCC)
Method: as §1

A498 = assay: XTT cell viability assay, A498 RCC cells; conditions: Homo sapiens, A498; XTT assay, 48 h; SD 10%; mean of three experiments; read-out: IC50 498 (Kidney RCC)
Method: as §1

RCC4 = assay: XTT cell viability assay, RCC4 RCC cells; conditions: Homo sapiens, RCC4, 48 h, SD 10%, mean of three experiments, read-out: IC50 R4 (Kidney RCC)
Method: as §1

786-O = assay: XTT cell viability assay, 786-O RCC cells; conditions: Homo sapiens, 786-0; XTT assay, 48 h; SD 10%; mean of three experiments; read-out: IC50 786 (Kidney RCC)
Method: as §1

MDA-MD-231 = assay: XTT cell viability assay, breast cancer cells; conditions: Homo sapiens, 48 h, SD 10%, mean of three experiments
Method: as §1

OCI-AML2 = assay: XTT cell viability assay, OCI-AML2 AML cells; conditions: Homo sapiens, OCI-AML2, 48 h, SD 10%, mean of three experiments, read-out: IC50 L2 (AML)
Method: as §1

OCI-AML3 = assay: XTT cell viability assay, OCI-AML3 AML cells; conditions: Homo sapiens, OCI-AML-3, 48 h, SD 10%, mean of three experiments, read-out: IC50 L3 (AML)
Method: as §1

Molm13 = assay: XTT cell viability assay, Molm13 AML cells; conditions: Homo sapiens, MOLM-13, 48 h, SD 10%, mean of three experiments
Method: as §1

Molm14 = assay: XTT cell viability assay, Molm14 AML cells; conditions: Homo sapiens, MOLM-14, 48 h, SD 10%, mean of three experiments
Method: as §1

SKM1 = assay: XTT cell viability assay, SKM1 MDS cells; conditions: Homo sapiens, SKM-1, 48 h, SD 10%, mean of three experiments, read-out: IC50 SK (MDS)
Method: as §1

K562 = assay: XTT cell viability assay, K562 CML cells; conditions: Homo sapiens, K562, 48 h, SD 10%, mean of three experiments
Method: as §1

Row | Compound | IC50 (786-O) [µM] | IC50 (MDA-MD-231) [µM] | IC50 (OCI-AML2) [µM] | IC50 (OCI-AML3) [µM] | IC50 (Molm13) [µM] | IC50 (Molm14) [µM] | IC50 (SKM1) [µM] | IC50 (K562) [µM] | IC50 (CAL27) [µM] | IC50 (CAL33) [µM] | IC50 (A498) [µM] | IC50 (RCC4) [µM]
1 | Cc1ccc(NC(=O)Nc2ccccc2Cl)cc1 [C1] | > 25 | > 25 | > 25 | > 25 | > 25 | > 25 | > 25 | > 25 | > 25 | > 25 | > 25 | > 25
2 | CCOc1ccc2nc(NC(=O)Nc3ccc(OC)cc3)sc2c1 [C33] | > 25 | > 25 | > 25 | > 25 | > 25 | 25 | > 25 | > 25 | > 25 | > 25 | > 25 | > 25
3 | Cc1ccc(NC(=S)Nc2ccccc2)cc1 [C7] | > 25 | > 25 | > 25 | > 25 | > 25 | > 25 | > 25 | > 25 | > 25 | > 25 | > 25 | > 25
4 | O=C(Nc1cccc(Cl)c1)Nc1nc2ccccc2s1 [C22] | > 25 | > 25 | > 25 | > 25 | > 25 | > 25 | > 25 | 25 | > 25 | > 25 | > 25 | 20
5 | O=C(Nc1ccc(Cl)cc1)Nc1ccc(Cl)cc1Cl [C6] | > 25 | > 25 | 25 | 22 | 22 | > 25 | > 25 | 15 | 25 | > 25 | 22 | > 25
6 | COc1ccc(NC(=O)Nc2nc3ccccc3[nH]2)cc1 [C17] | > 25 | > 25 | > 25 | > 25 | > 25 | > 25 | > 25 | > 25 | > 25 | > 25 | > 25 | > 25
7 | Cc1ccc(NC(=O)Nc2cccc(Cl)c2)cc1 [C2] | > 25 | > 25 | > 25 | > 25 | > 25 | > 25 | > 25 | > 25 | > 25 | > 25 | > 25 | > 25
8 | O=C(Nc1cccc(Cl)c1)Nc1ccc(Cl)cc1Cl [C5] | 22 | > 25 | 22 | 20 | 20 | 25 | 22 | 20 | 15 | 25 | 22 | 20
9 | Cc1ccc2nc(NC(=O)Nc3cccc(Cl)c3)sc2c1 [C26] | > 25 | > 25 | > 25 | > 25 | > 25 | > 25 | > 25 | > 25 | > 25 | > 25 | > 25 | > 25

Further lines, with some results ahead:

Row | IC50 (786-O) [µM] | IC50 (MDA-MD-231) [µM] | IC50 (OCI-AML2) [µM] | IC50 (OCI-AML3) [µM] | IC50 (Molm13) [µM] | IC50 (Molm14) [µM] | IC50 (SKM1) [µM] | IC50 (K562) [µM] | Compound | IC50 (CAL27) [µM] | IC50 (CAL33) [µM] | IC50 (A498) [µM] | IC50 (RCC4) [µM]
10 | > 25 | > 25 | > 25 | > 25 | > 25 | > 25 | > 25 | > 25 | O=C(Nc1cccc(Cl)c1)Nc1ccccc1O [C11] | > 25 | > 25 | > 25 | > 25
11 | > 25 | > 25 | > 25 | > 25 | > 25 | > 25 | > 25 | 25 | COc1ccc(NC(=O)Nc2nc3ccccc3s2)cc1 [C24] | > 25 | > 25 | > 25 | 15
12 | > 25 | > 25 | > 25 | > 25 | > 25 | > 25 | > 25 | > 25 | Cc1cccc(NC(=O)Nc2nc3ccc(C)cc3s2)c1 [C27] | > 25 | > 25 | > 25 | > 25
13 | 20 | 12 | 18 | 25 | 25 | 20 | 25 | 10 | O=C(Nc1ccccc1)Nc1nc2ccccc2[nH]1 [C13] | 10 | 10 | 10 | 25
14 | > 25 | > 25 | > 25 | > 25 | > 25 | > 25 | > 25 | > 25 | S=C(Nc1ccccc1)Nc1ccc(Cl)cc1Cl [C8] | > 25 | > 25 | > 25 | > 25
15 | > 25 | > 25 | > 25 | > 25 | > 25 | > 25 | > 25 | > 25 | O=C(Nc1nc2ccccc2[nH]1)Nc1ccccc1Cl [C14] | > 25 | > 25 | > 25 | > 25
16 | > 25 | > 25 | > 25 | > 25 | > 25 | > 25 | > 25 | > 25 | O=C(Nc1cccc(Cl)c1)Nc1nc2ccccc2[nH]1 [C15] | > 25 | > 25 | > 25 | > 25
17 | > 25 | > 25 | > 25 | > 25 | > 25 | > 25 | > 25 | > 25 | O=C(Nc1ccc(Cl)cc1)Nc1ccc(Cl)cc1 [C10] | > 25 | > 25 | > 25 | > 25
18 | > 25 | > 25 | 10 | > 25 | > 25 | > 25 | > 25 | > 25 | O=C(Nc1nc2ccccc2s1)Nc1ccccc1Cl [C21] | > 25 | > 25 | > 25 | 25
19 | > 25 | > 25 | > 25 | > 25 | > 25 | > 25 | > 25 | > 25 | Cc1ccc(NC(=O)Nc2ccc(Cl)cc2)cc1 [C3] | > 25 | > 25 | > 25 | > 25
20 | > 25 | > 25 | 25 | > 25 | > 25 | 25 | > 25 | 25 | CCOc1ccc2nc(NC(=O)Nc3cccc(C)c3)sc2c1 [C31] | > 25 | > 25 | > 25 | > 25
21 | > 25 | > 25 | > 25 | > 25 | > 25 | > 25 | > 25 | 25 | O=C(Nc1ccc(Cl)cc1)Nc1nc2ccccc2s1 [C23] | > 25 | > 25 | 25 | 20

Reference: paper PMC6691587, “New CXCR1/CXCR2 inhibitors represent an effective treatment for kidney or head and neck cancers sensitive or refractory to reference treatments” (Theranostics, 2019)
